Test results: ChEMBL document CHEMBL1909046, “DrugMatrix in vitro pharmacology data”

How the values were obtained:
[1] = biological target: Aldo-keto reductase family 1 member B1 (Rattus norvegicus, UniProt P07943); test: biochemical; type: tissue-based, Lens of camera-type eye;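 also: inhibition of aldose reductase enzyme activity, measured with DL-glyceraldehyde as the substrate; in other assays of this panel Not Active means under 50% inhibition at 10 µM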
[2] = biological target: T1, 3-hydroxy-3-methylglutaryl-coenzyme A reductase (Homo sapiens, UniProt P04035); set-up: species or system Escherichia coli;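 also: enzyme inhibition assay of HMG-CoA reductase using radiolabeled [14C]HMG-CoA as substrate; in other assays of this panel Not Active means under 50% inhibition at 10 µM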
T1 sequence (P04035 whole entry): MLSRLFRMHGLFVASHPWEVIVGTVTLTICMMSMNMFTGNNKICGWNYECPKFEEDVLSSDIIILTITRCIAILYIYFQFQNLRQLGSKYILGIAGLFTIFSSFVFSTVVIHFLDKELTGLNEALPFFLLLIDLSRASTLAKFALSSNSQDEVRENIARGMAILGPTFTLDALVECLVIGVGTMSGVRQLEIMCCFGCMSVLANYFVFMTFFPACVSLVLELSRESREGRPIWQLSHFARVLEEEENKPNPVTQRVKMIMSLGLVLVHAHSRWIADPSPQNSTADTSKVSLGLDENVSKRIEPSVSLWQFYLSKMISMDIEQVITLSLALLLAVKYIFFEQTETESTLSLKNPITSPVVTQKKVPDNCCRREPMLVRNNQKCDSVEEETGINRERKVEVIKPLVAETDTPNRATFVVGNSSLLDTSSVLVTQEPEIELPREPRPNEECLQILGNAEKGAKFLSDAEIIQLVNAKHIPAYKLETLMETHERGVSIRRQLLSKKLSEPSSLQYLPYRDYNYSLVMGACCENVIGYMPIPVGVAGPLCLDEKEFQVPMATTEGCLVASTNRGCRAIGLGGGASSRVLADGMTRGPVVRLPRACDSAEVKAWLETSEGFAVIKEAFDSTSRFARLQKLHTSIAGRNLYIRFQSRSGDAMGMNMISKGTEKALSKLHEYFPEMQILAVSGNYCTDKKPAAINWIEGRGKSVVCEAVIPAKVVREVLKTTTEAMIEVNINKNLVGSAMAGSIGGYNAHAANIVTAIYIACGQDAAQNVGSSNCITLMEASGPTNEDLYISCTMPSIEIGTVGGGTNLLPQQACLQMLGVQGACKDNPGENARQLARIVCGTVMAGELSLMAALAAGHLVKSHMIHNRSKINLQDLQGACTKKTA

[3] = biological target: T2, Angiotensin-converting enzyme (Oryctolagus cuniculus, UniProt P12822); type: tissue-based, Lung;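 also: enzymatic inhibition of angiotensin-converting enzyme measured with FAPGG as the substrate; in other assays of this panel Not Active means under 50% inhibition at 10 µM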
T2 sequence (P12822 whole entry): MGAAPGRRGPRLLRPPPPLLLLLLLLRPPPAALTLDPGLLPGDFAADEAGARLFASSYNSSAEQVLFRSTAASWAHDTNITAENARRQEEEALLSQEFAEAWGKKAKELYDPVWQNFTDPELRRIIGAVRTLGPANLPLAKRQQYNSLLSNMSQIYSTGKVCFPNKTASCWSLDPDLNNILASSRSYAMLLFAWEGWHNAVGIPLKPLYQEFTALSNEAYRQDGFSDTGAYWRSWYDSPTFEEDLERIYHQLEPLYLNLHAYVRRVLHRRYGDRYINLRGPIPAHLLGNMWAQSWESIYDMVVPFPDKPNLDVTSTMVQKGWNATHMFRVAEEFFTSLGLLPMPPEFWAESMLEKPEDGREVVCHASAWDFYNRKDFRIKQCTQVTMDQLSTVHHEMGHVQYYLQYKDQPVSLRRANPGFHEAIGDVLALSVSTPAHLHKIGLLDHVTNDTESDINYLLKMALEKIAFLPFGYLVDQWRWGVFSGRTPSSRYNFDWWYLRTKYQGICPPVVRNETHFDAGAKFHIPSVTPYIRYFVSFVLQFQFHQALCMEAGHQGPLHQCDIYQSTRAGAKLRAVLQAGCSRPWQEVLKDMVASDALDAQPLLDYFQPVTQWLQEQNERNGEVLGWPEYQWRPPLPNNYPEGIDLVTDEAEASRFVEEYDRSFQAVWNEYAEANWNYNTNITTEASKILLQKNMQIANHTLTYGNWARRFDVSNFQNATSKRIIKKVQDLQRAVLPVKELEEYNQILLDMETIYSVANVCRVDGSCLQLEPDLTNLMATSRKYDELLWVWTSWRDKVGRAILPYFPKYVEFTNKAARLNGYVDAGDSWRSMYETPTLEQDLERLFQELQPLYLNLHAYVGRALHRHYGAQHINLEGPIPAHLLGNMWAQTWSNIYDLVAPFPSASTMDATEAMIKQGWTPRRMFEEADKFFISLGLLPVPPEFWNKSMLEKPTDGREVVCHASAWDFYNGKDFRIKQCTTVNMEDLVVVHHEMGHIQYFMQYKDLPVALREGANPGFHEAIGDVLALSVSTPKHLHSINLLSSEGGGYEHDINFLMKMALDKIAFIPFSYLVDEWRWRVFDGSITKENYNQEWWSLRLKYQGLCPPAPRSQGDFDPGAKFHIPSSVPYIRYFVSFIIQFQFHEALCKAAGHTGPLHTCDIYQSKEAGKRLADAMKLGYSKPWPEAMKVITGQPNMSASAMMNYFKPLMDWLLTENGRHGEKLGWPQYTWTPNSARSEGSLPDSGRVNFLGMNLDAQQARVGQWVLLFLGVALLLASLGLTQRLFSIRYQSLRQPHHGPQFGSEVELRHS

[4] = DRUGMATRIX: Nicotinic Acetylcholine radioligand binding (ligand: [125I] Epibatidine); type: cell membranes, Membrane; conditions: imr-32; Not Active = under 50% inhibition at 10 µM
[5] = biological target: T3, Muscarinic acetylcholine receptor M4 (Homo sapiens, UniProt P08173); type: cell membranes, CHO-K1, Membrane; conditions: cho-k1; also: in other assays of this panel Not Active means under 50% inhibition at 10 µM
T3 sequence (P08173 whole entry): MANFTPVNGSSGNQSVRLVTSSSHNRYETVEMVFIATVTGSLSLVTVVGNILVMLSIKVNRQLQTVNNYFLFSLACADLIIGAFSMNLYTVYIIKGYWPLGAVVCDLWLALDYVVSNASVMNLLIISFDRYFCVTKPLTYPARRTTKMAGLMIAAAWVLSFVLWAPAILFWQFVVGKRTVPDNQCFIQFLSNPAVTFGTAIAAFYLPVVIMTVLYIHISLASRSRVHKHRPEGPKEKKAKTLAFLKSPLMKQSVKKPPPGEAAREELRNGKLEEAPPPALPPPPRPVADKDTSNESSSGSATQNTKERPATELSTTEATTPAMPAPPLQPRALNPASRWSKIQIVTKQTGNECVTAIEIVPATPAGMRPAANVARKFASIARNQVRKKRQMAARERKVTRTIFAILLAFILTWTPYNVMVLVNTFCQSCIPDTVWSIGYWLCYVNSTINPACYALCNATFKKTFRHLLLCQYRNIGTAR

[6] = biological target: Beta-3 adrenergic receptor (Homo sapiens, UniProt P13945); test: DRUGMATRIX: Adrenergic beta3 radioligand binding (ligand: [125I] Cyanopindolol); type: cell membranes, HEK293, Membrane; conditions: hek293; Not Active = under 50% inhibition at 10 µM
[7] = DRUGMATRIX: Glutamate, NMDA, Agonism radioligand binding (ligand: [3H] CGP-39653); type: cell membranes, Rattus norvegicus, Wistar, Cerebral cortex, Membrane; conditions: Not Active = under 50% inhibition at 10 µM

Beta-3 adrenergic receptor, sequence (P13945 whole entry): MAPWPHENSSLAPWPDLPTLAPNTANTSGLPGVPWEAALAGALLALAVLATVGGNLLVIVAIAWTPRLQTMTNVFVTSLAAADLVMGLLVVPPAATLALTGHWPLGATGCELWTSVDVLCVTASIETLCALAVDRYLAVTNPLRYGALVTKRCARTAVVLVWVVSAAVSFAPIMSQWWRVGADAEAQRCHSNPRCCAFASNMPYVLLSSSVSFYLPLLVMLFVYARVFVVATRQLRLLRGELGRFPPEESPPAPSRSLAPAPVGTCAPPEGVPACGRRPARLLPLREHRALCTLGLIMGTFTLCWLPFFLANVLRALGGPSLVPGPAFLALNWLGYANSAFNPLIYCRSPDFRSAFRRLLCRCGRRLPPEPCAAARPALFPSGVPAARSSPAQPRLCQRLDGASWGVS

Nn1nnc2ccccc21
Not Active: IC50 [1] | IC50 [2] | IC50 [3] | IC50 [4] | Ki [4] | IC50 [5] | IC50 [6] | IC50 [7] | Ki [7]

CC[C@]1(O)CC[C@H]2[C@@H]3CCC4=CCCC[C@@H]4[C@H]3CC[C@@]21C
Not Active: IC50 [1] | IC50 [2] | IC50 [3] | IC50 [4] | Ki [4] | IC50 [5] | IC50 [6] | IC50 [7] | Ki [7]

N[C@@H](Cc1ccc(F)cc1)C(=O)O
Not Active: IC50 [1] | IC50 [2] | IC50 [3] | IC50 [4] | Ki [4] | IC50 [5] | IC50 [6] | IC50 [7] | Ki [7]

CCOC(=O)[C@H](CCc1ccccc1)N[C@@H](C)C(=O)N1Cc2ccccc2C[C@H]1C(=O)O
Not Active: IC50 [1] | IC50 [2] | IC50 [4] | Ki [4] | IC50 [5] | IC50 [6] | IC50 [7] | Ki [7]

O=C(c1ccccc1Cl)N1CCC(Cc2ccccc2)CC1
Not Active: IC50 [1] | IC50 [2] | IC50 [3] | IC50 [4] | Ki [4] | IC50 [5] | IC50 [6] | IC50 [7] | Ki [7]

CCOC(=O)[C@H](CCc1ccccc1)N[C@@H](C)C(=O)N1CCC[C@H]1C(=O)O
Not Active: IC50 [1] | IC50 [2] | IC50 [4] | Ki [4] | IC50 [5] | IC50 [6] | IC50 [7] | Ki [7]

Clc1cc2c(cc1Cl)Oc1cc(Cl)c(Cl)cc1O2 [2,3,7,8-TETRACHLORODIBENZO-P-DIOXIN]
Not Active: IC50 [1] | IC50 [2] | IC50 [3] | IC50 [4] | Ki [4] | IC50 [5] | IC50 [6] | IC50 [7] | Ki [7]

C=C1/C(=C\C=C2/CCC[C@]3(C)[C@@H]([C@H](C)CCCC(C)C)CC[C@@H]23)C[C@@H](O)C[C@@H]1O [ALFACALCIDOL]
Not Active: IC50 [1] | IC50 [2] | IC50 [3] | IC50 [4] | Ki [4] | IC50 [5] | IC50 [6] | IC50 [7] | Ki [7]

CCCCCC[C@H]1C(=O)O[C@H](C)[C@H](NC(=O)c2cccc(NC=O)c2O)C(=O)O[C@@H](C)[C@@H]1OC(=O)CC(C)C [ANTIMYCIN A]
Not Active: IC50 [1] | IC50 [2] | IC50 [3] | IC50 [4] | Ki [4] | IC50 [5] | IC50 [6] | IC50 [7] | Ki [7]

C[C@@H]1CC[C@H]2[C@@H](C)C(=O)O[C@@H]3O[C@@]4(C)CC[C@@H]1[C@]32OO4 [ARTEMISININ]
Not Active: IC50 [1] | IC50 [2] | IC50 [3] | IC50 [4] | Ki [4] | IC50 [5] | IC50 [6] | IC50 [7] | Ki [7]

CO[C@H]1[C@@H](O)[C@H](N)[C@@H](O[C@H]2O[C@H]([C@H](C)N)CC[C@H]2N)[C@H](O)[C@@H]1N(C)C(=O)CN [ASTROMICIN]
Not Active: IC50 [1] | IC50 [2] | IC50 [3] | IC50 [4] | Ki [4] | IC50 [5] | IC50 [6] | IC50 [7] | Ki [7]

[N-]=[N+]=CC(=O)OC[C@H](N)C(=O)O [AZASERINE]
Not Active: IC50 [1] | IC50 [2] | IC50 [3] | IC50 [4] | Ki [4] | IC50 [5] | IC50 [6] | IC50 [7] | Ki [7]

CC[C@H]1OC(=O)[C@H](C)[C@@H](O[C@H]2C[C@@](C)(OC)[C@@H](O)[C@H](C)O2)[C@H](C)[C@@H](O[C@@H]2O[C@H](C)C[C@H](N(C)C)[C@H]2O)[C@](C)(O)C[C@@H](C)CN(C)[C@H](C)[C@@H](O)[C@]1(C)O [AZITHROMYCIN]
Not Active: IC50 [1] | IC50 [2] | IC50 [3] | IC50 [4] | Ki [4] | IC50 [5] | IC50 [6] | IC50 [7] | Ki [7]

CC(C)(C)c1ccc(S(=O)(=O)/C=C/C#N)cc1 [BAY-11-7085]
Not Active: IC50 [1] | IC50 [2] | IC50 [3] | IC50 [4] | Ki [4] | IC50 [5] | IC50 [6] | IC50 [7] | Ki [7]

Cc1cnc(C(=O)NCCc2ccc(S(=O)(=O)NC(=O)NC3CCCCC3)cc2)cn1 [GLIPIZIDE]
Not Active: IC50 [1] | IC50 [3] | IC50 [4] | Ki [4] | IC50 [5] | IC50 [6] | IC50 [7] | Ki [7]

CC[C@H](C)C(=O)O[C@H]1C[C@@H](C)C=C2C=C[C@H](C)[C@H](CC[C@@H]3C[C@@H](O)CC(=O)O3)[C@H]21 [LOVASTATIN]
Not Active: IC50 [1] | IC50 [3] | IC50 [4] | Ki [4] | IC50 [5] | IC50 [6] | IC50 [7] | Ki [7]

CC[C@H](C)C(=O)O[C@H]1C[C@H](O)C=C2C=C[C@H](C)[C@H](CC[C@@H](O)C[C@@H](O)CC(=O)O)[C@H]21 [PRAVASTATIN]
Not Active: IC50 [1] | IC50 [3] | IC50 [4] | Ki [4] | IC50 [5] | IC50 [6] | IC50 [7] | Ki [7]
